What was measured:
[1] = Deal et al. (Inorg. Chem. 1996); cited from earlier work
[2] = system: Chinese hamster V79 cells; experiment: Cytotoxicity by macroscopic colony formation, surviving fraction of V79 cells; assay type: cell-based; conditions: for treated cells that survive: concentration of 3 mM, FIG. 1
Protocol: Chinese hamster V79 cells were maintained in a 5% CO2/95% air humidified atmosphere at 37° C. in nutrient mixture F12 with 10% heat-inactivated fetal bovine serum and antibiotics. One day before each experiment, 5×10^5 V79 cells were plated into 100 mm petri dishes and incubated overnight The cells were exposed to the copper complex of N,N′,N″-triethyl-cis,cis-1,3,5-triaminocyclohexane or N,N,N″-triethyl-cis,cis-1,3,5-triaminocyclohexane or the corresponding ligand of N,N′,N″-triethyl-cis,cis-1,3,5-triaminocyclohexane or N,N′,N″-triethyl-cis,cis-1,3,5-triaminocyclohexane alone for 1 or 24 hours, after which they were rinsed, trypsinized, and plated for macroscopic colony formation. After incubating for 7 days, colonies were fixed with methanol/acetic acid and stained with crystal violet. Colonies larger than 50 cells were counted.

[3] = Hydrolysis of ethyl (p-nitrophenyl)phosphate; assay type: biochemical
Protocol: (§1) Measurements were performed as previously described (Deal et al. (Inorg. Chem. 1996), supra). Briefly, the initial rate of formation of 4-nitrophenolate was monitored spectrophotometrically at 400 nm for 1 hr or for less than 10% conversion of bis(p-nitrophenyl)phosphate to products. Reactions were run in sets of four, triplicate reaction mixtures and one reference. Spontaneous hydrolysis of the phosphate diester was corrected in the reference, which was identical to the reaction mixture, except lacking metal complex. The concentration of 4-nitrophenolate was calculated from the absorbance using an extinction coefficient of 18700 L mol^−1 cm^−1. The initial rate was obtained from the slope of the plots of 4-nitrophenolate concentration vs. time.
Bis(p-nitrophenyl)phosphate was hydrolyzed more rapidly than ethyl (p-nitrophenyl)phosphate, which was hydrolyzed more rapidly than p-nitrophenyl phosphate. Thus, the rate of metal-promoted hydrolysis is dependent on the electron-withdrawing ability of the leaving group. Leaving groups which are strongly electron-withdrawing are considered activated and hydrolyze more rapidly. […]

[4] = system: hypoxic MCF-7 human mammary carcinoma cells; experiment: Hypoxic irradiation with the copper complex, surviving fraction of MCF-7 cells; assay type: cell-based; conditions: 15 minutes with complex, then irradiated, FIG. 4
Protocol: MCF-7 human mammary carcinoma cells were maintained in a 5% CO2/95% air humidified atmosphere at 37° C. in RPMI 1640 with 10% heat-inactivated fetal bovine serum and antibiotics. For hypoxia experiments, 3×10^5 MCF-7 cells were plated into glass flasks, and incubated overnight The flasks were sealed with a rubber stopper, and two hypodermic needles were inserted to allow for gassing. Flasks were gassed with a 95% nitrogen/5% carbon dioxide mixture for one hour. The copper complex was added to the cells after they were hypoxic through a glass sidearm connected to the flask by a ground glass connection. Cells were incubated for 1 hour for experiments to assess the toxicity of the copper complex, then plated and incubated as described previously in Example 4. For hypoxic irradiation experiments, cells were incubated with the copper complex for 15 minutes, then irradiated, plated and incubated as described previously in Example 4. Cells were irradiated with an Eldorado 8 Cobalt-60 teletherapy machine (Theratronics International Ltd., Kanata, Ontario, Canada). The dose rate varied form 200 to 150 cGy/min during the course of this study. Decay corrections were done monthly, and full electron equilibrium was ensured for all irradiations.

[5] = system: hypoxic MCF-7 human mammary carcinoma cells; experiment: Cytotoxicity to hypoxic MCF-7 cells, surviving fraction; assay type: cell-based; conditions: 1500 μM, 1 hour, FIG. 3
Protocol: MCF-7 human mammary carcinoma cells were maintained in a 5% CO2/95% air humidified atmosphere at 37° C. in RPMI 1640 with 10% heat-inactivated fetal bovine serum and antibiotics. For hypoxia experiments, 3×10^5 MCF-7 cells were plated into glass flasks, and incubated overnight The flasks were sealed with a rubber stopper, and two hypodermic needles were inserted to allow for gassing. Flasks were gassed with a 95% nitrogen/5% carbon dioxide mixture for one hour. The copper complex was added to the cells after they were hypoxic through a glass sidearm connected to the flask by a ground glass connection. Cells were incubated for 1 hour for experiments to assess the toxicity of the copper complex, then plated and incubated as described previously in Example 4.

[6] = Hydrolysis of bis(p-nitrophenyl)phosphate, initial rate of 4-nitrophenolate formation at 400 nm; assay type: biochemical
Protocol: The copper (II) complex of N,N′,N″-trimethyl-cis,cis-1,3,5-triaminocyclohexane prepared in accordance with the method of Example 2 (1 mM) was combined with bis(4-nitrophenyl)phosphate (1 mM) and HEPES (50 mM), pH 7.24, at 50° C. and incubated, while monitoring for an increase in absorbance at 400 nm. An aliquot was withdrawn and analyzed by reverse phase HPLC, eluted with a linear gradient of 100% 50 mM acetic acid/50 mM triethylamine to 100% methanol over thirty minutes. The signals observed in the reaction mixture corresponded to the predicted hydrolytic products, p-nitrophenyl phosphate (10.5 min) and 4-nitrophenolate (16.8 min), as well as unreacted bis(p-nitrophenyl)phosphate (20.2 min). Products were confirmed by co-injection of standards.
as §1

copper (II) triazacyclononane [copper (II) triazacyclononane system]
rate of phosphate diester hydrolysis [1]: 1.3e-06 s⁻¹

copper complex of N,N′,N″-trimethyl-cis,cis-1,3,5-triaminocyclohexane
concentration producing approximately the same effect, cells treated for 1 hr ([2]; 1 hr, FIG. 2): 4000 µM | concentration producing approximately the same effect, cells treated for 24 hrs ([2]; 24 hrs, FIG. 2): 1000 µM | treated cells that survive [2]: 3% | rate acceleration compared to the copper (II) triazacyclononane system [3]: 6.7 | radiation alone needed for the same effect as radiation plus the copper complex [4]: Approximately twice | treated hypoxic cells destroyed [5]: approximately 99% | rate of phosphate diester hydrolysis relative to the copper (II) triazacyclononane system [6]: approximately 6.5 times faster | pKa from plot of log initial rate versus pH (Dixon method) ([6]; consistent with deprotonation of a copper(II) coordinated water molecule): 7.3 | maximal velocity (Vmax) ([6]; modified Lineweaver-Burke function): 9.3e-08 s⁻¹ | Km ([6]; modified Lineweaver-Burke function, read-out: Michaelis Constant (Km)): 4.4 mM

copper complex of N,N′,N″-triethyl-cis,cis-1,3,5-triaminocyclohexane
treated cells that survive [2]: 15%

O=P(O)(O)OP(=O)(O)O [pyrophosphate, reference compound]
inhibition of the hydrolysis reaction ([6]; 0.5 equivalents relative to the copper complex): completely inhibited
